Laboratory results taken from patent publication US9593109B2, “Bicyclic agonists of GPR131 and uses thereof” (CYMABAY THERAPEUTICS, INC., priority 2011, dated 2017).

These molecules were tested against T1, human GPR131 (Homo sapiens, UniProt Q8TDU6) (assay: Stimulation of cAMP (agonism of GPR131), FRET cAMP assay). Details: 0.5 h; 1.1 μM compound; compared to maximal stimulatory activity of lithocholic acid (LCA) determined at 3.3 μM; stable cell line expressing human GPR131; 37° C. for 30 minutes; read-out: Percent Activity @ 1.1 μM (of 3.3 uM LCA) (%).
T1 construct: expressed in transfected cells
T1 sequence (Q8TDU6 1-330): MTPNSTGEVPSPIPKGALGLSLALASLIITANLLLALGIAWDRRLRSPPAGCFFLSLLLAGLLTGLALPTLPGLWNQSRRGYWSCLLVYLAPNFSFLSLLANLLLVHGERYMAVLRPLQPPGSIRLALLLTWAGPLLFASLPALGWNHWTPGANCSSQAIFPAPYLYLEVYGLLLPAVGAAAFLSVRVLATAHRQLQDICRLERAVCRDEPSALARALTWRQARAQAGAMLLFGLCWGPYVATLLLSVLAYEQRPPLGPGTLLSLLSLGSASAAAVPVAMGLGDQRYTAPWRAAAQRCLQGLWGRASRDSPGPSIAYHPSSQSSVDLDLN
Type: cell-based
Description: This assay was developed using a stable cell line expressing human GPR131.
To measure cAMP activity in response to GPR131 agonists, GPR131 cells suspended in DMEM/F12 medium with 1 mM IBMX were seeded in 384 well plates at 5000 cells per well. After incubating with test compounds at 37° C. for 30 minutes cAMP was measured using a fluorescene resonance energy transfer cAMP kit from Cis Bio (Bedford, Mass.) according to the manufacturer's instructions. Briefly, cells were lysed, and cAMP levels determined by competitive immunoassay using D2 labeled cAMP, and europium cryptate tagged anti cAMP antibody. Decreases in the FRET signal (fluorescence ratio (665 nm/620 […]) correspond to increases in intracellular cAMP levels.
Activities of test compounds in Table 1 below are expressed as percent activity at 1.1 μM compound compared to the maximal stimulatory activity of lithocholic acid (LCA) (determined at 3.3 μM LCA).

| SMILES | activation at 1.1 µM [%] |
| --- | --- |
| Clc1ccc(-n2nnnc2-c2c(-c3cc(Cl)ccc3Cl)nc3occn23)cc1 [Compound 551, 5-(1-(4-Chlorophenyl)-1H-tetrazol-5-yl)-6-(2,5-dichlorophenyl)imidazo[2,1-b]oxazole] | 95.7 |
| Clc1ccc(-n2nnnc2-c2c(-c3cc(Cl)ccc3Cl)nc3ccccn23)cc1 [Compound 552, 3-(1-(4-Chlorophenyl)-1H-tetrazol-5-yl)-2-(2,5-dichlorophenyl)imidazo[1,2-a]pyridine] | 100 |
| Clc1ccc(-n2cnnc2-c2c(-c3cc(Cl)ccc3Cl)nc3ccccn23)cc1 [Compound 553, 3-(4-(4-Chlorophenyl)-4H-1,2,4-triazol-3-yl)-2-(2,5-dichlorophenyl)imidazo[1,2-a]pyridine] | 99.9 |
| Clc1ccc(-n2ncnc2-c2c(-c3cc(Cl)ccc3Cl)nc3ccccn23)cc1 [Compound 554, 3-(1-(4-Chlorophenyl)-1H-1,2,4-triazol-5-yl)-2-(2,5-dichlorophenyl)imidazo[1,2-a]pyridine] | 99.9 |
| Clc1ccc(-n2nnnc2-c2c(-c3cc(Cl)ccc3Cl)nc3cccnn23)cc1 [Compound 555, 3-(1-(4-Chlorophenyl)-1H-tetrazol-5-yl)-2-(2,5-dichlorophenyl)imidazo[1,2-b]pyridazine] | 100 |
| Clc1ccc(-n2nnnc2-c2c(-c3cc(Cl)ccc3Cl)nc3cnccn23)cc1 [Compound 556, 3-(1-(4-Chlorophenyl)-1H-tetrazol-5-yl)-2-(2,5-dichlorophenyl)imidazo[1,2-a]pyrazine] | 88.4 |
| Clc1ccc(-n2ccnc2-c2c(-c3ccccc3Cl)nc3ccccn23)cc1 [Compound 557, 2-(2-Chlorophenyl)-3-(1-(4-chlorophenyl)-1H-imidazol-2-yl)imidazo[1,2-a]pyridine] | 99.7 |
| Clc1ccc(-n2nnnc2-c2c(-c3cc(Cl)ccc3Cl)nc3n2CCCC3)cc1 [Compound 559, 3-(1-(4-Chlorophenyl)-1H-tetrazol-5-yl)-2-(2,5-dichlorophenyl)-5,6,7,8-tetrahydroimidazo[1,2-a]pyridine] | 94.6 |
| Clc1ccc(-n2ccnc2-c2c(-c3cc(Cl)ccc3Cl)nc3n2CCCC3)cc1 [Compound 560, 3-(1-(4-Chlorophenyl)-1H-imidazol-2-yl)-2-(2,5-dichlorophenyl)-5,6,7,8-tetrahydroimidazo[1,2-a]pyridine] | 100 |
| Clc1ccc(-n2ccnc2-c2c(-c3cc(Cl)ccc3Cl)nc3cccnn23)cc1 [Compound 561, 3-(1-(4-Chlorophenyl)-1H-imidazol-2-yl)-2-(2,5-dichlorophenyl)imidazo[1,2-b]pyridazine] | 100 |
| FC(F)(F)c1ccc(-n2ccnc2-c2c(-c3cc(Cl)ccc3Cl)nc3ccccn23)cc1 [Compound 564, 2-(2,5-Dichlorophenyl)-3-(1-(4-(trifluoromethyl)phenyl)-1H-imidazol-2-yl)imidazo[1,2-a]pyridine] | 100 |
| FC(F)(F)c1ccc(-n2ccnc2-c2c(-c3cc(Cl)ccc3Cl)nc3cccnn23)cc1 [Compound 565, 2-(2,5-Dichlorophenyl)-3-(1-(4-(trifluoromethyl)phenyl)-1H-imidazol-2-yl)imidazo[1,2-b]pyridazine] | 100 |

The next lines start with the values.

| activation at 1.1 µM [%] | SMILES |
| --- | --- |
| 90.9 | Cn1ncc2c(-n3cnnc3-c3c(-c4cc(Cl)ccc4Cl)nc4ccccn34)cccc21 [Compound 545, 4-(3-(2-(2,5-Dichlorophenyl)imidazo[1,2-a]pyridin-3-yl)-4H-1,2,4-triazol-4-yl)-1-methyl-1H-indazole] |
| 97.9 | FC(F)(F)c1ccc(-n2nnnc2-c2c(-c3cc(Cl)ccc3Cl)nc3ccccn23)cc1 [Compound 562, 2-(2,5-Dichlorophenyl)-3-(1-(4-(trifluoromethyl)phenyl)-1H-tetrazol-5-yl)imidazo[1,2-a]pyridine] |
| 99.5 | FC(F)(F)c1ccc(-n2nnnc2-c2c(-c3cc(Cl)ccc3Cl)nc3cccnn23)cc1 [Compound 563, 2-(2,5-Dichlorophenyl)-3-(1-(4-(trifluoromethyl)phenyl)-1H-tetrazol-5-yl)imidazo[1,2-b]pyridazine] |
| 99.7 | N#Cc1ccc(-n2nnnc2-c2c(-c3cc(Cl)ccc3Cl)nc3ccccn23)cc1 [Compound 566, 4-(5-(2-(2,5-Dichlorophenyl)imidazo[1,2-a]pyridin-3-yl)-1H-tetrazol-1-yl)benzonitrile] |
| 99.9 | N#Cc1ccc(-n2ccnc2-c2c(-c3cc(Cl)ccc3Cl)nc3ccccn23)cc1 [Compound 567, 4-(2-(2-(2,5-Dichlorophenyl)imidazo[1,2-a]pyridin-3-yl)-1H-imidazol-1-yl)benzonitrile] |
| 96 | Clc1cccc(-c2nc3ccccn3c2-c2nncn2-c2ccc3cn[nH]c3c2)c1 [Compound 568, 6-(3-(2-(3-Chlorophenyl)imidazo[1,2-a]pyridin-3-yl)-4H-1,2,4-triazol-4-yl)-1H-indazole] |
